# Source: patent US20070015813A1, “Treatment of protein folding disorders” (QUEEN'S UNIVERSITY AT KINGSTON, priority 2005, published 2007)
# Experiments:
# Aβ1-40 [1] = molecular target: T1, Aβ1-40 (Homo sapiens, UniProt P05067); experiment: Kinetic Thioflavin T (ThT) aggregation assay of Aβ1-40; type: biochemical; settings: 20 μM Aβ1-40, 4 μM ThT, pH 7.4, 37° C., kinetic ThT assay
# T1 construct: Aβ^1-40 (AnaSpec, San Jose, Calif., lots 14212, 34862 and 34889); purchased AnaSpec, San Jose, Calif
# T1 sequence (P05067 672-711 limits assumed): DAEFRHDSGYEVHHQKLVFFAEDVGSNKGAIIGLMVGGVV
# Description: Aβ^1-40 (1.0 mg) was pre-treated in a 1.5 mL microfuge tube with 1,1,1,3,3,3-hexafluoroisopropanol (HFIP, 1 mL) and sonicated for 20 min. to disassemble any pre-formed Aβ aggregates. The HFIP was removed with a stream of argon and the Aβ dissolved in Tris base (5.8 mL, 20 mM, pH 10.5). The pH was adjusted to 7.4 with concentrated HCl and the solution filtered using a syringe filter (0.2 μm). This solution was used for circular dichroism studies or diluted with an equal volume of 8 μM Thioflavin T (ThT) in Tris-HCl (20 mM, pH 7.4, 300 mM NaCl) for the ThT aggregation assay.
# Aliquots (200 μL) of Aβ^1-40, Aβ^1-42, tau441 or α-synuclein with ThT or ThS were added to wells of a black polystyrene 96-well plate, followed by 2 μL of a compound in DMSO (various concentrations), or DMSO alone (controls). For α-synuclein, sodium dodecyl sulfate solution (2.0 μL, 30 mM) was also added to each well to induce aggregation. Incubations were performed in triplicate and were taken to contain 20 μM Aβ^1-40 or Aβ^1-42, 6 μM tau441 or 4 μM α-synuclein. Plates were covered with clear polystyrene lids and incubated at 37° C. in a GENios microplate reader obtained from Tecan Group Limited, Mannedorf, Zurich. For Aβ^1-40, tau441 and α-synuclein, fluorescence readings (λex=450 nm, λem=480 nm) were taken every 15 min., after first shaking at high intensity for 15 sec. and allowing to settle for 10 sec. before each reading. For Aβ^1-42, readings were taken every 5 min.
# The absorbance of each compound was measured under the conditions used during testing, though on ten times the scale (2 mL), to ensure no significant quenching interfered with the assay. This step was also used to identify whether compounds were completely soluble under testing conditions.
# FIG. 1 depicts the inhibition of Aβ^1-40 aggregation, as measured by Thioflavin T (ThT) fluorescence, by directly-linked 3,3′-bis-indolyl compounds 0c-i (A), other bis-indoles (B), aza-indole-containing compounds (C), indole-phenols (D), indole-5-carboxylic acid-containing bi-aromatics (E), and naphthol-containing bi-aromatics (F). Aggregation conditions: 20 μM Aβ^1-40 incubated in covered black 96-well polystyrene microplates with 4 μM ThT, pH 7.4, Tris-HCl (20 mM), 150 mM NaCl, 1% DMSO. Compound concentrations are 200 μM (A,B, except where otherwise noted), 100 μM (E), 20 μM (F), or as indicated (C,D). Plates heated at 37° C. in Tecan Genios microplate reader. All incubations performed in triplicate. Prior to experiment, Aβ^1-40 pretreated with 1,1,1,3,3,3-hexafluoroisopropanol (HFIP). Fluorescence readings: fluorescence measured every 15 min. (λex=450 nm, λem=480 nm) after shaking for 15 sec. and pausing 10 sec. before taking measurement. Values are the mean of three replicates. Error bars, omitted for clarity in (B), represent standard deviation of the mean.
# Aβ1-40 [2] = molecular target: T1, Aβ1-40; experiment: Aβ1-40 disaggregation assay; type: biochemical; settings: compound added after incubating at 37° C. for 46 hrs., ThT fluorescence
# Description: Aβ^1-40 was allowed to aggregate under conditions described in Thioflavin T Aggregation Assay except that no DMSO was added initially. After 46 hrs., compound in DMSO or vehicle was added (2 μL) and the fluorescence measured every 15 min. as detailed above. […] FIG. 3 depicts dose-response curves for inhibition of Aβ^1-40 aggregation by 0j and positive control, morin. FIG. 4 depicts the inhibition of Aβ^1-40 aggregation by 0c in “seeded” ThT assay. FIG. 5 depicts disaggregation of Aβ^1-40 by 0c and positive control, morin. After incubating at 37° C. for 46 hrs. 0c, morin or vehicle were added as DMSO solutions (1:100) and the fluorescence measured every 15 min.
Structure (SMILES),"inhibition of Aβ1-40 aggregation, as measured by Thioflavin T (ThT) fluorescence (Aβ1-40 [1])",disaggregation of Aβ1-40 (Aβ1-40 [2])
O=c1c(O)c(-c2ccc(O)cc2O)oc2cc(O)cc(O)c12 [morin],inhibition,disaggregation
"O=C(O)c1ccc2[nH]cc(-c3c[nH]c4ccc(Br)cc34)c2c1 [0c, 3-(5-bromo-indol-3-yl)-indole-5-carboxylic Acid]",dose-response effect,disaggregation
